Results: US5747495A, “Method for treating hypertension using pyrazolopyrimidine derivatives” (Maeda; Hiroshi, priority 1995, dated 1998)
Values joined by “and” are separate entries in the source; they are usually repeats but may differ in a detail not shown here. Identical values can stand only once.

Key:
Rabbit Aortic Ring = assay: Relaxation of phenylepherine-contracted rabbit aortic ring by acetylcholine in the presence of AHPP; set-up: species or system New Zealand White rabbit; settings: for Amount of acethylcholine required to inhibit 50% relaxation of aorta ring: 0.11 without AHPP
Method: Synergistic Vascular Relaxation Effect to Acetylcholine of Rabbit Aortic Ring by AHPP Aortic ring with a diameter of 5 mm was prepared from chest aorta of New Zealand White female rabbits with a body weight of 2.5-3.0 kg. The rings were surgically prepared and hanged into the organ bath containing 20 ml of Krebs solution, which was kept at 37° C. and supplemented with 95% O2 and 5% CO2, for determination of the tension. Aortic ring relaxation by […] acetylcholine was measured in the prescence of 0, 100, and 300 μmole/L of AHPP, after aortic ring contraction was induced by 0.15 μmole/L phenylepherine.

[1] = biological target: T1, cow milk xanthine oxidase (Bos taurus, UniProt P80457); assay: Inhibition of uric acid production by xanthine oxidase in vitro; format: biochemical
T1 construct: in the presence of cow milk xanthine oxidase; from tissue; host or cells: cow milk
Method: Inhibitory Effect of AHPP Against Uric Acid Production by Xanthine Oxidase In Vitro
Rate of uric acid production was determined by measuring the increase of an optical absorbance at 290 nm in 50 mM phosphate buffer solution (pH 7.5) containing 2.19-21.9 μmole/L of xanthine and 0-0.44 μmole/L AHPP in the presence of cow milk xanthine oxidase in the final concentration of 3.33 mU/ml. […] The inhibitory coefficient (Ki) of AHPP for xanthine oxidase was determined to be 0.2 μM, by an analysis of its reaction velocity kinetics.

[2] = biological target: xanthine oxidase derived from cow milk (Bos taurus, UniProt P80457); assay: Inhibition of superoxide production by xanthine oxidase in vitro (lucigenin chemiluminescence); format: biochemical; settings: for Integral value of intensity of chemiluminescence/10 min: average of two measurements, without AHPP 5.2 × 10^6 count
Method: Inhibitory Effect of AHPP against Superoxide Production by Xanthine Oxidase In Vitro
Production of superoxide radicals was determined by measuring a chemiluminescence observed in 100 mM phosphate buffer (pH 7.4) containing 10 μmole/L lucigenin and […] xanthine in the presence of 20 U/ml of xanthine oxidase derived from cow milk. Further, the inhibition of superoxide generation by the AHPP was evaluated by addition of 0-100 μmole/L of AHPP into the reaction mixture.

[3] = system: Spontaneously Hypertensive Rats; assay: Mean arterial blood pressure of spontaneously hypertensive rats after intravenous injection; format: in vivo, rat; settings: 50 mg/kg, average of 8 rats
Method: Effect of Intravenous Injection of AHPP on the Blood Pressure of Spontaneously Hypertensive Rats
Eighteen weeks old spontaneously hypertensive 8 male rats weighing 300-400 g were intravenously infused with 50 mg/kg of AHPP in a solution dissolved in 1 ml of 0.1 M NaOH for 5 minutes (8 rats), and mean arterial blood pressure was measured under anesthesia. Eight control rats were received only 0.1 M NaOH by intravenous infusion.
Dose of AHPP. 50 mg/kg in rats. 0.33 mmol/ml, 1.0 ml/5 min. See text for details. Average value of 8 measurements ±SD.

[4] = system: Spontaneously Hypertensive Rats; assay: Systolic blood pressure of spontaneously hypertensive rats after oral administration; format: in vivo, rat; settings: 100 mg/kg oral, 4 hours after treatment, male spontaneously hypertensive rats
Method: Effects of Oral Administration of AHpp on the Blood Pressure of Spontaneously Hypertensive Rats
Four male spontaneously hypertensive rats with a body weight of […] and 4 male rats with a body weight of 200-300 g were orally given with 100 mg/kg of AHPP and a systolic blood pressure in tail artery was examined 4 hours after the treatment. Systolic blood pressure of the treated group was reduced to 70% the value of before

xanthine oxidase = settings: J. Biol. Chem., 226, 993-1000, 1957; cited from earlier work
xanthine dehydrogenase = settings: Yokohama Med. Bull., 29, 53-58, 1978; cited from earlier work
tryptophan pyrolase = settings: Life Sci., 8, 843-851, 1969; cited from earlier work

Chain of xanthine oxidase derived from cow milk (P80457 whole entry): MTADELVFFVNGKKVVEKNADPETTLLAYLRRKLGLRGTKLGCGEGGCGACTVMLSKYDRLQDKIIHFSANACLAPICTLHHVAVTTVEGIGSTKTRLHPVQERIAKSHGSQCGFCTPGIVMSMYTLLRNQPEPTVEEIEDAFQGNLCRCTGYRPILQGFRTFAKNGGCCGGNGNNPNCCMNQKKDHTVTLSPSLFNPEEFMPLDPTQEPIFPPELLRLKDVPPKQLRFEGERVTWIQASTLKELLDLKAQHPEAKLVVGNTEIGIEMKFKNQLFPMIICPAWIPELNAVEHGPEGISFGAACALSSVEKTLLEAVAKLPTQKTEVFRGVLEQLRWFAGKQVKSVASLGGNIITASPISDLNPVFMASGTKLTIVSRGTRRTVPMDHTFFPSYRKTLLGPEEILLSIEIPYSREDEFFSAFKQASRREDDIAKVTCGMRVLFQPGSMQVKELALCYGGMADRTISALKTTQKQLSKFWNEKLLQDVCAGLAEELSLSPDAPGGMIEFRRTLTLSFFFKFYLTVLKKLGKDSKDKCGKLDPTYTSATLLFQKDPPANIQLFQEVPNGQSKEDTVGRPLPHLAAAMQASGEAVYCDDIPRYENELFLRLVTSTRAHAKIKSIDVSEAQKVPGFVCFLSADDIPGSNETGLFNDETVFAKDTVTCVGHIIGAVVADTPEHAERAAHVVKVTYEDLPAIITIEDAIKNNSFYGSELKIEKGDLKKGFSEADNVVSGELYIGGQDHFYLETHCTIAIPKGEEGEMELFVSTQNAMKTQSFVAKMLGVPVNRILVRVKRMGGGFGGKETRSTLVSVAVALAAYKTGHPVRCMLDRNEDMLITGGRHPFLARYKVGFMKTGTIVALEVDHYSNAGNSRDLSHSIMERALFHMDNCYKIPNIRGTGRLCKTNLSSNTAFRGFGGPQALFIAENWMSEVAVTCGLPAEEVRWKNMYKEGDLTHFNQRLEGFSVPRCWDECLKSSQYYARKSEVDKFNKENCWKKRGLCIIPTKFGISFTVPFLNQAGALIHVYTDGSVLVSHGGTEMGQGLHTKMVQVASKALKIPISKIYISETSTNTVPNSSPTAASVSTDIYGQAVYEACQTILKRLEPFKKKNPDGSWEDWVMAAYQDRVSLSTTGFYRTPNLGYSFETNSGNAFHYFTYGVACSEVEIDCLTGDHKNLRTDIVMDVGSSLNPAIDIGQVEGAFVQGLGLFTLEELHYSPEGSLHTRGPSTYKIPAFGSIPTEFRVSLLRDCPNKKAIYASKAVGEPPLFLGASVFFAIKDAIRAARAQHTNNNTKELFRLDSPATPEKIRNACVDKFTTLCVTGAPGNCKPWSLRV
T1 sequence (P80457 whole entry): as above

CC(=O)OCC[N+](C)(C)C [acetylcholine, reference compound]
EC50 (Rabbit Aortic Ring; Oryctolagus cuniculus, 0 μmole/L AHPP, contraction by 0.15 μmole/L phenylepherine, average of four measurements, read-out: Amount of acethylcholine required to inhibit 50% relaxation of aorta ring): 110 nM

Nc1nc(O)nc2[nH]ncc12 [AHPP, 4-amino-6-hydroxypyrazolo [3,4-d]pyrimidine]
inhibition of uric acid production by xanthine oxidase ([1]; 0-0.44 μmole/L AHPP, pH 7.5): inhibited by AHPP in a dose-dependent manner | Ki ([1]; pH 7.5, 2.19-21.9 μmole/L xanthine, 0-0.44 μmole/L AHPP, 3.33 mU/ml enzyme, read-out: inhibitory coefficient (Ki) for xanthine oxidase): 200 nM | type of inhibition of xanthine oxidase ([1]; reaction velocity kinetics): competitive inhibition | inhibition of superoxide production by xanthine oxidase ([2]; 0-100 μmole/L AHPP, pH 7.4): inhibit superoxide production by xanthine oxidase in a dose-dependent manner | Integral value of intensity of chemiluminescence/10 min ([2]; 1 μmole/L AHPP): 4.4 × 10^6 count | Integral value of intensity of chemiluminescence/10 min ([2]; 10 μmole/L AHPP): 1.6 × 10^6 count | dose of phenylepherine required for 50% relaxation of phenylepherine-induced aortic ring contraction (Rabbit Aortic Ring; 0, 100, and 300 μmole/L AHPP): reduced depending on the concentration of AHPP | Amount of acethylcholine required to inhibit 50% relaxation of aorta ring (Rabbit Aortic Ring; 100 μmole/L AHPP, contraction by 0.15 μmole/L phenylepherine, average of four measurements): 0.075 | Amount of acethylcholine required to inhibit 50% relaxation of aorta ring (Rabbit Aortic Ring; 300 μmole/L AHPP, contraction by 0.15 μmole/L phenylepherine, average of four measurements): 0.055 | Mean arterial blood pressure (100% = preinjection value) ([3]; 5 min after iv, control 105.5 ± 7.5): 98.3 ± 2.7% | Mean arterial blood pressure (100% = preinjection value) ([3]; 10 min after iv, control 107.3 ± 6.9): 92.2 ± 6.1% | Mean arterial blood pressure (100% = preinjection value) ([3]; 15 min after iv, control 106.1 ± 6.3): 91.1 ± 5.6% | Mean arterial blood pressure (100% = preinjection value) ([3]; 20 min after iv, control 105.0 ± 6.6): 86.9 ± 8.0% | Mean arterial blood pressure (100% = preinjection value) ([3]; 30 min after iv, control 103.3 ± 4.2): 81.7 ± 5.0% | Mean arterial blood pressure (100% = preinjection value) ([3]; 40 min after iv, control 100.5 ± 3.1): 77.7 ± 5.2% | Mean arterial blood pressure (100% = preinjection value) ([3]; 50 min after iv, control 98.9 ± 3.3): 76.1 ± 7.2% | Mean arterial blood pressure (100% = preinjection value) ([3]; 60 min after iv, control 97.5 ± 4.1): 73.5 ± 7.5% | Mean arterial blood pressure (100% = preinjection value) ([3]; 70 min after iv, control 96.7 ± 5.0): 72.4 ± 6.6% and 72% | Systolic blood pressure in tail artery, % of value before [4]: 70% | inhibition of xanthine oxidase (xanthine oxidase): potent inhibitor | inhibition of xanthine dehydrogenase (xanthine dehydrogenase): potent inhibitor | inhibition of tryptophan pyrolase (tryptophan pyrolase): potent inhibitor
